Results: paper PMC3876893 (Journal of the American Chemical Society, 2013)

Biological target: CalE8 (Micromonospora echinospora, UniProt Q8KNG1)
Experiment: in vitro reconstitution, HPLC/LCMS of base-released polyketides
Assay type: biochemical
Conditions: NADPH co-substrate (0.5 mM each), pH 7.0, 24 °C, no CalE7 thioesterase

Sequence of CalE8 (Q8KNG1 1-1919): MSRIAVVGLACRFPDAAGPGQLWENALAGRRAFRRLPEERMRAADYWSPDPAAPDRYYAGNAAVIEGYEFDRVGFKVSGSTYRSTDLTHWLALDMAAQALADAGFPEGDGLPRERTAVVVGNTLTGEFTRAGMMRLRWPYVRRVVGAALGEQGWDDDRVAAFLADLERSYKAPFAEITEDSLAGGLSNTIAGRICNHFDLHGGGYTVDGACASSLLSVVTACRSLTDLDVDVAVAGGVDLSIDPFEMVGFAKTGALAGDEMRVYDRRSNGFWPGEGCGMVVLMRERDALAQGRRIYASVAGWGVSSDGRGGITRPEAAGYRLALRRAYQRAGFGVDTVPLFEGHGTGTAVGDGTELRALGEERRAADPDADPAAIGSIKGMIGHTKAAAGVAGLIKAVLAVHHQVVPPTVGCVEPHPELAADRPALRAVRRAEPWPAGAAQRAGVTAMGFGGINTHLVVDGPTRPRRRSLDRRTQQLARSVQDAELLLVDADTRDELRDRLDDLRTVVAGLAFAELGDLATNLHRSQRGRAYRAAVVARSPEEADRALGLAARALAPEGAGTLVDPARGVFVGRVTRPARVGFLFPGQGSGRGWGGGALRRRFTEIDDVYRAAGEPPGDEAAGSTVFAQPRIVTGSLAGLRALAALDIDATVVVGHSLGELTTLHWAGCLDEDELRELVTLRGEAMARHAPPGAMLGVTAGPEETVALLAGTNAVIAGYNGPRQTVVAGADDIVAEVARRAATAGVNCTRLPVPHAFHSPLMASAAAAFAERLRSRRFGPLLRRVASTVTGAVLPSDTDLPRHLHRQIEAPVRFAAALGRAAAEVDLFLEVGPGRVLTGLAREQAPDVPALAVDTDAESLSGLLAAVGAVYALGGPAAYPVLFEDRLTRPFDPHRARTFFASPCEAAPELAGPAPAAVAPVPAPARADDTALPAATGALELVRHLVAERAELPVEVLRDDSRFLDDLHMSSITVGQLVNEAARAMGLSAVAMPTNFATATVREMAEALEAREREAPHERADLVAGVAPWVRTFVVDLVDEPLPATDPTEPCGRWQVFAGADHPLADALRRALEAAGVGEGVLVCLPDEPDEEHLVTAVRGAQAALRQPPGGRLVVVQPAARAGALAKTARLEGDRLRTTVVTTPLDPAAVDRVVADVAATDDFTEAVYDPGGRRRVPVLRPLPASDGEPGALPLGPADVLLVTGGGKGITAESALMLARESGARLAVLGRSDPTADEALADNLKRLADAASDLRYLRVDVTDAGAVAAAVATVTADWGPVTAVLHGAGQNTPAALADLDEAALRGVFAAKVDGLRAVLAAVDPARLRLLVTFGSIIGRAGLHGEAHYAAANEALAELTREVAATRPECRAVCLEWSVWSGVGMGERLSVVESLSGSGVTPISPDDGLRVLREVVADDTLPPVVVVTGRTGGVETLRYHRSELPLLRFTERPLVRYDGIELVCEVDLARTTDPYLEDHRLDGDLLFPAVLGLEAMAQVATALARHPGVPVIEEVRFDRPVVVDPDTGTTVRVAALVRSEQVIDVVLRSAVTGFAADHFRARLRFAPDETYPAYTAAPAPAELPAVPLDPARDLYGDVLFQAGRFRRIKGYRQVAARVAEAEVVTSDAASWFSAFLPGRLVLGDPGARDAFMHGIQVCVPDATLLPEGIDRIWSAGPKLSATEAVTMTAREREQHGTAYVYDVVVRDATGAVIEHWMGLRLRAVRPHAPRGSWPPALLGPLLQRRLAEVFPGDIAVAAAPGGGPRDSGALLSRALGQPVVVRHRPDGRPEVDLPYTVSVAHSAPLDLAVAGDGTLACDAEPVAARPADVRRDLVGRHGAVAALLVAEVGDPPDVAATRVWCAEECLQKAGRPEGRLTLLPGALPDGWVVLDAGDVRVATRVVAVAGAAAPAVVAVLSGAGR

CC(=O)NCCSC(=O)CC(=O)O [malonyl-SNAc]
in vitro reconstitution, HPLC/LCMS of base-released polyketides: polyketide profiles of CalE8 are consistent when MalCoA is replaced by malonyl-SNAc (MalSNAc)
